Source: US7795254B2, “Benzomorpholine derivatives and methods of use” (Amgen Inc., priority 2007, dated 2010)
Where two headings read alike, the source gives them in different places.

Experiments:
HUVEC = test: VEGF induced proliferation, HUVEC cell-based assay; details: Homo sapiens
[1] = test system: VEGF-induced rat corneal angiogenesis; test: VEGF-induced rat corneal angiogenesis assay; assay type: in vivo; details: for Average # of Vessels: 7 days
Method: (§1) Tables 2 through 6 below describe the results obtained in the rat corneal in vivo model of angiogenesis for (1) reference compound (free base) 1, (2) Compound A (free base), and (3) the hydrochloride salt of Compound A. A VEGF-induced rat corneal angiogenesis assay was performed using the following procedure: • In Life Aspects: Female CD rats weighing approximately 250 grams were randomized into one of six treatment groups. On the day of surgery the rats were temporarily anesthetized using isoflurane. A vertical incision was made on the midline of the cornea and a pocket was created to separate the connective tissue layers of the stroma. The distance between the apex of the pocket and the limbus was approximately 1.8 mm. A presoaked nylon filter disk was inserted to the apex of the pocket (in the case of the control treatment group, the disks were soaked in a buffer containing bovine serum albumin; in the remaining treatment groups, the disks were soaked in buffer containing bovine serum albumin plus human VEGF to induce angiogenesis). The different treatment groups were then dosed daily with either vehicle (Ora Plus™, a commercially available vehicle) or a designated amount of test compound formulated in vehicle. • Study Termination and Analysis: After seven days, the rats were euthanized and the implanted corneas photographed using a Nikon SV-3 Ophthalmic Slit Lamp. Numerical data were generated from the digital images using the Metamorph image analysis system (Universal Imaging). Three endpoints were analyzed on each corneal image: (1) disk placement distance from the limbus, (2) number of vessels intersecting a perpendicular line at the midpoint of the disk placement distance, and (3) blood vessel area, as determined by thresholding and automated pixel counting. Only the number of blood vessels is shown in the tables as this endpoint correlated well with the blood vessel area. • Statistical Analysis: Results were analyzed with the StatView statistical program using one-way ANOVA, followed by Fisher's least significant difference test. Data are presented as mean±SE and P<0.05 was considered significant. AUC and ED50 values were calculated using methods well known in the art.

[2] = Exposure (AUC) in the rat corneal angiogenesis study; assay type: in vivo; details: for AUC: female, CD, rat, in vivo, oral, Table 3, free base
Method: as §1

[3] = Rat pharmacokinetic profile; details: in vivo
Text: (§2) Table 7 provides additional information about the pharmacokinetic profiles of reference compound 1 and Compound A. The data contained in this table was obtained using methods well known in the art.

Rat Liver Microsome = test: Rat liver microsome clearance; assay type: in vitro ADME; details: rat liver microsomes
Text: as §2

Human Liver Microsome = test: Human liver microsome clearance; assay type: in vitro ADME; details: human liver microsomes
Text: as §2

liver microsomes = test: In vitro metabolite profiling in liver microsomes; assay type: in vitro ADME; details: 10 μM, liver microsomes 1 mg/mL (human, mouse, rat, monkey, rabbit, dog), NADPH, 37° C., 1 hr
Method: Incubation mixtures were prepared including [14C]-Compound A (10 μM, 0.5 μCi), liver microsomes at 1 mg/mL (human, mouse, rat, monkey, rabbit, dog), MgCl2 (3 mM), and potassium phosphate buffer (100 mM). The reaction was started by adding NADPH (1 mM) and incubations were carried out in a shaking water bath maintained at 37° C. for 1 hr. The reactions were stopped by adding 1 volume of ACN:MeOH 1:1 mixture; vortex mixed; centrifuged at 16000×g. The supernatants were analyzed on a reverse phase HPLC (Agilent 1100, Agilent systems, DE) in line with a radiomatic (β-ram, IN/US systems, FL) detector and an LTQ ion-trap mass spectrometer (ThermoFisher, San Jose, Calif.). HPLC separations were carried out on a phenyl-hexyl luna (150×4.6 mm, 5 μm, Phenomenex Inc) column maintained at 40° C. at a flow rate of 1 mL/min. A binary mobile phase consisting of 10 mM ammonium formate in H2O (solvent A) and 0.1% formic in MeOH (solvent B) was employed under the following gradient conditions: 0 to 2 min, 95% A; 2 to 10 min, 95 to 75% A; 10 to 40 min, 75 to 60% A; 40 to 60 min, 60 to 55% A; 60 to 77 min, 55 to 25% A; 77 to 78 min, 25 to 5% A; 78 to 83 min, 5% A; 83 to 84 min, 5 to 95% A; 84 to 90 min, 95% A. The flow post-column was split such that 80% went to radiomatic detector and the remaining 20% to MS. […]

cytochrome P450 3A4 = cytochrome P450 3A4 (Homo sapiens, UniProt P08684); test: Incubation with recombinant human cytochrome P450 3A4; assay type: in vitro ADME; details: fortified with NADPH
Text: The following compounds identified in Table 16 below were the significant metabolites formed in all species.

cytochrome P450 3A4, sequence (P08684 whole entry): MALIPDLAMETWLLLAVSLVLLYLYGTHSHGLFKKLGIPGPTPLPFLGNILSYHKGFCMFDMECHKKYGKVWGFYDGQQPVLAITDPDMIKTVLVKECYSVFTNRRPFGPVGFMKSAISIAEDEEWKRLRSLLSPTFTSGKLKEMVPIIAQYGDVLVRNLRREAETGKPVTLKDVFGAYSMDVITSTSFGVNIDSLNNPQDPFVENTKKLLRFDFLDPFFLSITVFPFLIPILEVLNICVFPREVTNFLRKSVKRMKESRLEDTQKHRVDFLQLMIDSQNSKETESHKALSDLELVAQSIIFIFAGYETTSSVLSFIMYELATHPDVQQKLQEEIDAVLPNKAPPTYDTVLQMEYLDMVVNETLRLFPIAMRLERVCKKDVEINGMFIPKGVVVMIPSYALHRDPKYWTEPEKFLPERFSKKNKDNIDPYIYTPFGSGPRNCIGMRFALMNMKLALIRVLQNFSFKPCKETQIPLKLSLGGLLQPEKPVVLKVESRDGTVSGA

`COc1cc2nccc(Oc3ccc4c(c3)OCCN4C(=O)Nc3cc(C)on3)c2cc1OC` [Compound A, 7-((6,7-bis(methyloxy)-4-quinolinyl)oxy)-N-(5-methyl-3-isoxazolyl)-2,3-dihydro-4H-1,4-benzoxazine-4-carboxamide] showed an IC50 (HUVEC) of 2 nM, an ED50 ([1]; Rattus norvegicus, Table 3, free base, number of vessels, read-out: ED50) of 0.16 mg/kg and an ED50 ([1]; Rattus norvegicus, Table 6, HCl salt Run #3, number of vessels, read-out: ED50) of 0.14 mg/kg. The “Average # of Vessels” value ([1]; Table 3, free base, VEGF disc + 0.03 mg/kg daily) was 24.5, the “Average # of Vessels” value ([1]; Table 3, free base, VEGF disc + 0.1 mg/kg daily) was 24.9 and the “Average # of Vessels” value ([1]; Table 3, free base, VEGF disc + 0.3 mg/kg daily) was 5.4. The “Average # of Vessels” value ([1]; Table 3, free base, VEGF disc + 1.0 mg/kg daily) was 2.3, the ED50 ([1]; free base, review of Tables 2 and 3) was 0.16 mpk and the “AUC at ED50” value ([2]; Table 6, HCl salt Run #3) was 338 ng·h/mL. For the same compound, the “average AUC at the ED50” value ([2]; average of HCl salt studies of Tables 4 and 6 and free base study of Table 3) was 313 ng·h/mL, the AUC ([2]; 0.03 mg/kg, 0.03 mg/kg daily) was 109 ng·h/mL and the AUC ([2]; 0.1 mg/kg, 0.1 mg/kg daily) was 203 ng·h/mL. For the same compound, the AUC ([2]; 0.3 mg/kg, 0.3 mg/kg daily) was 730 ng·h/mL, the AUC ([2]; 1 mg/kg, 1.0 mg/kg daily) was 2370 ng·h/mL and the clearance ([3]; intravenous) was 6.67 mL/min/kg. For the same compound, the Vd ([3]; intravenous, read-out: Rat Volume of Distribution) was 1 L/kg, the half-life ([3]; iv, I.V., read-out: Rat I.V. T1/2 (converted)) was 126 min and the bioavailability ([3]; po, 2 mg/kg, P.O., 2 mpk, read-out: Rat P.O. (2 mpk) % F) was 59%. For the same compound, the AUC(0-inf) ([3]; po, 2 mg/kg, P.O., 2 mpk, read-out: Rat P.O. (2 mpk) AUC0-inf) was 2810 ng·h/mL, the AUC(0-t) ([3]; po, 2 mg/kg, P.O., 2 mpk, read-out: Rat P.O. (2 mpk) AUC0-t) was 2800 ng·h/mL and the half-life ([3]; po, 2 mpk, P.O., read-out: Rat P.O. T1/2 (converted)) was 120 min. For the same compound, the “Rat Liver Microsome” value (Rat Liver Microsome) was 45 µL/min/mg, the “Human Liver Microsome” value (Human Liver Microsome) was 17 µL/min/mg and the “turnover in liver microsomes” value (liver microsomes) was “Substantial turnover”. For the same compound, the “metabolites formed with recombinant human cytochrome P450 3A4” value (cytochrome P450 3A4) was “These same metabolites were also formed”.
